The source made the active and inactive calls.
How the values were obtained:
[1] = target: T1, Sigma non-opioid intracellular receptor 1 (Cavia porcellus, UniProt Q60492); assay: Displacement of [3H]-(+)-pentazocine from sigma-1 receptor in guinea pig brain membranes incubated for 1 hr by liquid scintillation counting method; assay type: cell membranes, Membrane
Rattus norvegicus [2] = assay: Antinociceptive activity in formalin-induced Sprague-Dawley rat model of nociceptive pain assessed as decrease in time spent on licking during acute phase at 40 mg/kg, ip administered 30 mins before formalin stimulation and measured at 5 mins interval for 10 mins; assay type: functional, organism-based; settings: time 40.0 min
[3] = Ratio of drug concentration in brain to plasma in Sprague-Dawley rat at 10 mg/kg, ip by LC-MS/MS analysis; assay type: ADME, organism-based; settings: read-out: BPR
[4] = AUC (0 to infinity) in Sprague-Dawley rat plasma at 10 mg/kg, ip after 0.25 to 4 hrs by LC-MS/MS analysis; assay type: ADME, organism-based; design: route intraperitoneal, time 0.25-4 hrs, dose 10 mg/kg
[5] = Cmax in Sprague-Dawley rat plasma at 10 mg/kg, ip measured after 0.25 to 4 hrs by LC-MS/MS analysis; assay type: ADME, organism-based; design: route intraperitoneal, time upper 4 hrs, time lower 0.25 hrs, dose 10 mg/kg
Rattus norvegicus [6] = assay: Analgesic activity in Sprague-Dawley rat model of paclitaxel-induced neuropathic pain assessed as reduction in cold hyperalgesia by measuring increase in paw withdrawal latency at 20 to 40 mg/kg, ip measured at 1 to 2 hrs post dosing by Von Frey assay relative to control; assay type: functional; design: scale not given: the % may be the effect or the level left; settings: dose 20-40 mg/kg, time 1-2 hrs
hERG (KCNH2) = hERG (KCNH2) (Homo sapiens, UniProt Q12809); assay: Binding affinity to human ERG at 1 uM relative to control; assay type: cell-based; settings: HEK293 cells, read-out: Activity
Chain of hERG (KCNH2) (Q12809 whole entry): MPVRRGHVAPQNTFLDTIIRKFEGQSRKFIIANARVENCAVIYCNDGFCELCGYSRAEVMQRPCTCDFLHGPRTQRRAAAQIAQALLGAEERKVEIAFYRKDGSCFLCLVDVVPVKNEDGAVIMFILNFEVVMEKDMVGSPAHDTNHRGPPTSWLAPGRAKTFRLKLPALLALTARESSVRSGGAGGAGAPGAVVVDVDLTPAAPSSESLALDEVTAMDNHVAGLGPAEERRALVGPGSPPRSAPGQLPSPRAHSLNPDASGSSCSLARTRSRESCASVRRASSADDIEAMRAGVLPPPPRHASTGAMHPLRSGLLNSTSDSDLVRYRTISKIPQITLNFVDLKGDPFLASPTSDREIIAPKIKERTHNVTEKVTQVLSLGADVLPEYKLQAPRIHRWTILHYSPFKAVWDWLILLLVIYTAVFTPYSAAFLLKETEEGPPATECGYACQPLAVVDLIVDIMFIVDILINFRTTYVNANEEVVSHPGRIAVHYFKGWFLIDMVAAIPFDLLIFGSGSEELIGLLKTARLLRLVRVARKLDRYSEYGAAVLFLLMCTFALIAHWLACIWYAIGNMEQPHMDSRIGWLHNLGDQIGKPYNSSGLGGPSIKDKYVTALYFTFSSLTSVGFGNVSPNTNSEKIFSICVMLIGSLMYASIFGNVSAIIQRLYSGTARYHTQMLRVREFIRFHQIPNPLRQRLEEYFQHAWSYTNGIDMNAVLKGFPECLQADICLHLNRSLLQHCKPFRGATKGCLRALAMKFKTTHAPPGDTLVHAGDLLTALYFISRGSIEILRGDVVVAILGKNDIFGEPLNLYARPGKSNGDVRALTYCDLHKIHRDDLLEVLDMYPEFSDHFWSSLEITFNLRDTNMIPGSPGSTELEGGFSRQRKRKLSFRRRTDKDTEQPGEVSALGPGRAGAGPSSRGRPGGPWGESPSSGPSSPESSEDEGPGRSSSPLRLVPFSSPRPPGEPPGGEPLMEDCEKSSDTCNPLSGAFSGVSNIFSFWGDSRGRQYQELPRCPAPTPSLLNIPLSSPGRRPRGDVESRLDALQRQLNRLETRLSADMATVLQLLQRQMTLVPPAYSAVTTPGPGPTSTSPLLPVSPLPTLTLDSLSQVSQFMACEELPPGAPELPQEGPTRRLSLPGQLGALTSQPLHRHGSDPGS

[7] = target: Sigma intracellular receptor 2 (Homo sapiens, UniProt Q5BJF2); assay: Displacement of [3H]-DTG from sigma-2 receptor in human Jurkat cell membrane incubated for 1 hr by liquid scintillation counting method; assay type: cell membranes
Chain of Sigma intracellular receptor 2 (Q5BJF2 whole entry): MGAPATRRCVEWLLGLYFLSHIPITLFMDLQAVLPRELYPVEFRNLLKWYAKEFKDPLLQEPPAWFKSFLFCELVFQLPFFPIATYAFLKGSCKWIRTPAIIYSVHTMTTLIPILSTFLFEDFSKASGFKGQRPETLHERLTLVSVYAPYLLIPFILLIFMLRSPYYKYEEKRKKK

[8] = Displacement of [3H]-DTG from sigma-2 receptor in guinea pig brain membrane incubated for 1 hr by liquid scintillation counting method; assay type: cell membranes, Cavia porcellus
[9] = target: Mu-type opioid receptor (Homo sapiens) (UniProt P35372); assay: Displacement of [3H]-Diprenorphine from recombinant human full-length mu opiod receptor expressed in […] cells at 1 uM incubated for 60 mins by scintillation counting method; assay type: cell-based; settings: HEK293
Chain of Mu-type opioid receptor (Homo sapiens) (P35372 whole entry): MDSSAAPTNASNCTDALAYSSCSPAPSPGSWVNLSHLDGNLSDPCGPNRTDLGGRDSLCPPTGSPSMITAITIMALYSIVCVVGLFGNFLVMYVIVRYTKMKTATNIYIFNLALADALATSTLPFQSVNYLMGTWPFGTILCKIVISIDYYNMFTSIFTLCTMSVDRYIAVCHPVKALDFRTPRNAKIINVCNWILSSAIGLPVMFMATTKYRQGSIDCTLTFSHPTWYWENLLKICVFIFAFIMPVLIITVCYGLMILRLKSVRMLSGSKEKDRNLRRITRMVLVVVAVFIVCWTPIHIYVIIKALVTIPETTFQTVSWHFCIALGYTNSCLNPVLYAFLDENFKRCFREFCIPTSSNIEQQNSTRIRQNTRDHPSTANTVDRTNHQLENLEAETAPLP

[10] = Intrinsic clearance in human liver microsomes at 10 uM incubated for 1 hr in presence of NADPH by LC-MS/MS analysis; assay type: ADME, Microsome; settings: read-out: CLH
[11] = Metabolic stability in rat liver microsomes assessed as half-life at 10 uM incubated for 1 hr in presence of NADPH by LC-MS/MS analysis; assay type: ADME, Microsome
[12] = target: T1, Sigma non-opioid intracellular receptor 1
[13] = Tmax in Sprague-Dawley rat plasma at 10 mg/kg, ip measured after 0.25 to 4 hrs by LC-MS/MS analysis; assay type: ADME, organism-based; settings: time 0.25-4 hrs
[14] = Metabolic stability in human liver microsomes assessed as half-life at 10 uM incubated for 1 hr in presence of NADPH by LC-MS/MS analysis; assay type: ADME, Microsome
Rattus norvegicus [15] = assay: Antinociceptive activity in formalin-induced Sprague-Dawley rat model of nociceptive pain assessed as decrease in time spent on licking during late phase at 20 to 40 mg/kg, ip administered 30 mins before formalin stimulation and measured at 5 mins interval for 10 to 35 mins; assay type: functional, organism-based; settings: dose 20-40 mg/kg
[16] = target: Kappa-type opioid receptor (Homo sapiens) (UniProt P41145); assay: Displacement of [3H]-Diprenorphine from recombinant human full-length kappa opiod receptor expressed in human HEK293 cells at 1 uM incubated for 60 mins by scintillation counting method; assay type: cell-based
Chain of Kappa-type opioid receptor (Homo sapiens) (P41145 whole entry): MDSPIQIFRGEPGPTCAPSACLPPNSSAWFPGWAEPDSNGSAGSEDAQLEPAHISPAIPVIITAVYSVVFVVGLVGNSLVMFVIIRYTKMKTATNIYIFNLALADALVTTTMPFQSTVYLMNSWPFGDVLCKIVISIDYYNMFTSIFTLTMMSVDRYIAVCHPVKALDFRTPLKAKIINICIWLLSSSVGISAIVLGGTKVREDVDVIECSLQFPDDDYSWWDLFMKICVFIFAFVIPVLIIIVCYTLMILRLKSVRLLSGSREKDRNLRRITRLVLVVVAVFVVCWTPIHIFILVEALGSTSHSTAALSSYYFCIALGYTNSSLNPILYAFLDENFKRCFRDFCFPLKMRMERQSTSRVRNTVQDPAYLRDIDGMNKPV

[17] = target: Sigma non-opioid intracellular receptor 1 (Homo sapiens, UniProt Q99720); assay: Displacement of [3H]-pentazocine from sigma-1 receptor in human Jurkat cell membrane incubated for 2 hr by liquid scintillation counting method; assay type: cell membranes
Chain of Sigma non-opioid intracellular receptor 1 (Homo sapiens, UniProt Q99720) (Q99720 whole entry): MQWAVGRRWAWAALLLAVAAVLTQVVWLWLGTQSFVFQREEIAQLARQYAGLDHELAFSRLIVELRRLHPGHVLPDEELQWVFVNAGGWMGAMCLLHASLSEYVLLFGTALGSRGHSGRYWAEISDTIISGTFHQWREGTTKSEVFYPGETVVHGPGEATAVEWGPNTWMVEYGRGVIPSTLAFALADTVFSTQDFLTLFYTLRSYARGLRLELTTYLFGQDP

Rattus norvegicus [18] = assay: Analgesic activity in Sprague-Dawley rat model of paclitaxel-induced neuropathic pain assessed as decrease in mechanical allodynia by measuring reduction in pain threshold at 20 mg/kg, ip measured at 0.5 to 1.5 hrs by Von Frey assay relative to control; assay type: functional; design: scale not given: the % may be the effect or the level left; settings: time 0.5-1.5 hrs
[19] = MRT (0 to infinity) in Sprague-Dawley rat plasma at 10 mg/kg, ip after 0.25 to 4 hrs by LC-MS/MS analysis; assay type: ADME, organism-based; settings: time 0.25-4 hrs
[20] = Intrinsic clearance in rat liver microsomes at 10 uM incubated for 1 hr in presence of NADPH by LC-MS/MS analysis; assay type: ADME, Microsome; settings: read-out: CLH
[21] = Toxicity in Sprague-Dawley rat assessed as effect on motor coordination at 10 to 20 mg/kg, ip measured at 30 to 120 mins post treatment by rotarod test; assay type: organism-based; settings: in vivo, dose lower 10 mg/kg, time lower 30 min, dose upper 20 mg/kg, time upper 120 min
[22] = target: Sigma non-opioid intracellular receptor 1 (Cavia porcellus) (UniProt Q60492); assay: Ratio of Ki for displacement of [3H]-(+)-pentazocine from sigma-1 receptor to Ki for displacement of [3H]-(+)-pentazocine from sigma-1 receptor in guinea pig brain membranes in presence of phenytoin; assay type: cell membranes; settings: Membrane
Chain of Sigma non-opioid intracellular receptor 1 (Cavia porcellus) (Q60492 whole entry): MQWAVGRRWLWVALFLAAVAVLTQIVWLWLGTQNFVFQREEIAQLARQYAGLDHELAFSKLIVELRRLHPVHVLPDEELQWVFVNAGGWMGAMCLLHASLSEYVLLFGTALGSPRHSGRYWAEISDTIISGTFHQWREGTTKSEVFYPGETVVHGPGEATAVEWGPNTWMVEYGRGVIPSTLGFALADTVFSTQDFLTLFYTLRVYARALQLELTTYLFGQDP

[23] = AUC (0 to 4 hrs) in Sprague-Dawley rat plasma at 10 mg/kg, ip after 0.25 to 4 hrs by LC-MS/MS analysis; assay type: ADME, organism-based; design: route intraperitoneal, dose 10 mg/kg, time upper 4 hrs, time lower 0.25 hrs
[24] = target: Delta-type opioid receptor (Homo sapiens) (UniProt P41143); assay: Displacement of [3H]-Naltrindole from recombinant human full-length delta opiod receptor expressed in human HEK293 cells at 1 uM incubated for 60 mins by scintillation counting method; assay type: cell-based
Chain of Delta-type opioid receptor (Homo sapiens) (P41143 whole entry): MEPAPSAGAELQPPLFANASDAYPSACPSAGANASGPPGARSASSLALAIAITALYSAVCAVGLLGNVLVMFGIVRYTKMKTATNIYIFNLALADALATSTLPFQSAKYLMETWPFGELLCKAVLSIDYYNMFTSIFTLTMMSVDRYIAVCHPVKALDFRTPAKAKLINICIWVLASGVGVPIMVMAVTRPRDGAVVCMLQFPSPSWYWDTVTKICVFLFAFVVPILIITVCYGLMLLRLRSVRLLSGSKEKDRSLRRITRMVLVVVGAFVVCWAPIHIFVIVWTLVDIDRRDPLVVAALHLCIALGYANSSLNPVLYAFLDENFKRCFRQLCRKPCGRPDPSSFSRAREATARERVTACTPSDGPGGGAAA

[25] = Half life in Sprague-Dawley rat plasma at 10 mg/kg, ip measured after 0.25 to 4 hrs by LC-MS/MS analysis; assay type: ADME, organism-based; settings: time 0.25-4 hrs

T1 sequence (Q60492 whole entry): as the sequence (Q60492 whole entry) above

Cn1nc(CN2CCCC2)nc1-c1ccc(C(C)(C)C)cc1
Ki [1]: 2.7 nM | Activity (Rattus norvegicus [2]): Active | Kp [3]: 12 | AUC(0-inf) [4]: 635 ng·h/mL | Cmax [5]: 932 ng/mL | Activity (Rattus norvegicus [6]): 120% | activity at 1 µM (hERG (KCNH2)): 8.4% | Ki [7]: > 1000 nM | Ki [8]: 474 nM | Activity [9]: inactive | microsomal CLint at 10 µM [10]: 5.8 µL/min/mg | half-life at 10 µM [11]: 9.6 min | Ki [12]: 3.4 nM | Tmax [13]: 15 min | half-life at 10 µM [14]: 120 min | Activity (Rattus norvegicus [15]): Active | Activity [16]: inactive | Ki [17]: 7.5 nM | Activity (Rattus norvegicus [18]): 180% | MRT inf [19]: 43.8 min | microsomal CLint at 10 µM [20]: 72 µL/min/mg | Activity [21]: Non-Toxic | Ratio Ki [22]: 0.8 | AUC(0-t) [23]: 633 ng·h/mL | Activity [24]: inactive | half-life [25]: 33.6 min
